pEC50: −log10 of the molar value. Where a name gives a salt, the structure may show the parent alone.
Experiments:
[1] = molecular target: T1, IK1 channel (Homo sapiens, UniProt O15554); assay: IK1 channel opening activity measurement test (membrane potential, human IK1 channel expressing CHO dhfr- cells); format: cell-based; set-up: expressed in transfected cells; host or cells: CHO dhfr- cells; conditions: NS-309 0.2 μM = 100%, DMSO = 0%, read-out: EC50 of IK1 channel opening action
Description: (§1) Cells ((1) T84 cells (which is known as IK1 channel expressing cells) or (2) human IK1 channel expressing cells (transgene: NM_002250.2, use cells: CHO dhfr-)) were seeded in a 384-well microplate so as to be 12000 cells/well. After incubation overnight, a medium was suctioned, and 20 μL of FLIPR Membrane Potential Assay Reagent (FLIPR Membrane Potential Assay kit, manufactured by Molecular Devices LLC) was added to the medium, followed by incubation at room temperature for 1 hour. Fluorescence intensity was measured at 530 nm/590 nm, which was set as a pre value. 20 μL of a buffer solution containing a test drug (which contains 0.01% pluronic acid and 20 mM Hepes-NaOH (pH7.4); 0.2% CHAPS in HBSS) was added, followed by incubation at room temperature for 1 hour, and a post value was measured. Activity of the test drug was determined from relative values where NS-309 (6,7-dichloro-1H-indole-2,3-dione 3-oxime, manufactured by Sigma-Aldrich Co., LLC; 0.2 μM; DMSO solution) treatment was set as 100%, and DMSO treatment was set as 0%. Activity value (%) at each concentration was plotted against a concentration of the test drug, and EC50 value was calculated by a Logistic regression method.
(§2) The EC50 values of an IK1 channel opening action of the several representative Example compounds of the invention are shown in the following Table (in the Table, No. means a number, and Ex means an Example compound number. The same shall apply hereinafter.). […] With P<0.05 in each assay, it was determined that there was a significant difference.

[2] = molecular target: T1, IK1 channel; assay: IK1 channel opening activity measurement test (membrane potential, T84 cells); format: cell-based; set-up: T84 cells (which is known as IK1 channel expressing cells); endogenous in cells; host or cells: T84 cells; conditions: NS-309 0.2 μM = 100%, DMSO = 0%, read-out: EC50 of IK1 channel opening action
Description: as §1, §2

[3] = tested on: monoiodoacetate-induced osteoarthritis model; assay: Inhibitory effect on hindlimb weight distribution in monoiodoacetate-induced osteoarthritis model; format: in vivo, rat; conditions: for significance versus solvent group: at the dose shown in Table 5, P<0.05; for Improvement rate: male SD rats, 1 mg/kg oral, 3 weeks after MIA, 1 or 2 hours after administration
Description: (§3) Moreover, in Test Examples 2 to 6, a 0.5% methyl cellulose suspension was used as a test drug.
This model is a model of osteoarthritis, and action to osteoarthritis pain can be evaluated using the model. This test was performed based on The Journal of Pharmacology and Experimental Therapeutics, 2010, vol. 334, p. 955-963. Under isoflurane anesthesia, 1 mg/site of monoiodoacetate (hereinafter referred to as MIA) (manufactured by Sigma-Aldrich Co., LLC) solution was singly administered into the right knee joint cavity of male SD rats (provided by Charles River Laboratories, Japan). MIA was dissolved in physiological saline, and 50 μL thereof was administered using a 27 gauge×0.5 inches needle. 3 weeks after the MIA administration, the solvent or the test drug was orally administered. After 1 or 2 hours, the weight distribution between the left and the right hindlimb was measured using an Incapacitance Tester (manufactured by Linton Instrumentation). A significant difference test of a solvent group and a test drug group was performed in comparison between groups using Student's t-test or Dunnett multiple comparison test. With P<0.05 in each assay, it was determined that there was a significant difference.
Effectiveness with respect to a monoiodoacetate-induced osteoarthritis model of the several representative Example compounds of the invention is shown in the following Table.

[4] = tested on: adjuvant-induced arthritis rat; assay: Inhibitory effect on hindlimb weight distribution in adjuvant-induced arthritis rat; format: in vivo; conditions: for significance versus solvent group: at the dose shown in Table 4, P<0.05; for MED (minimum effective dose): female Lewis rat, oral, 1 or 2 hours after administration, hindlimb weight distribution
Description: as §3
This model is a model to study inflammatory pain. 50 μL of killed Mycobacterium tuberculosis H37Ra (manufactured by DIFCO Laboratories) suspended in a liquid paraffin was subcutaneously administered into a right hindlimb footpad of a female Lewis rat (provided by Charles River Laboratories, Japan) so as to be 10 mg/mL. Next day, the solvent or the test drug was orally administered. After 1 or 2 hours, the weight distribution between the left and the right hindlimbs was measured using an Incapacitance Tester (manufactured by Linton Instrumentation). A significant difference test of a solvent group and a test drug group was performed in comparison between groups using Student's t-test or Dunnett multiple comparison test. With P<0.05 in each assay, it was determined that there was a significant difference.
Effectiveness in the adjuvant-induced arthritis rat test of the several representative Example compounds of the invention is shown in the following Table.

[5] = tested on: vagotomized rat; assay: Action to tenderness threshold value in vagotomized rat; format: in vivo; conditions: for significance versus solvent group: at the dose shown in Table 6, P<0.05; for Improvement rate (tenderness threshold value): male SD rats, 3 mg/kg oral, after 2 hours, sham = 100%, surgery solvent group = 0%
Description: as §3
The model was made based on Neuroscience, 2009, vol. 164, p. 1252-1262. Male SD rats (provided by Japan SLC, Inc, Japan) were anesthetized with somnopentyl, followed by shaving near a xiphisternum. Incision was performed along the midline from the xiphisternum to the tail side. A stomach and an esophagus under a diaphragm were exposed, and vagus nerves on both sides of the esophagus were transected. Muscle and skin were sutured in order. 1 to 3 weeks after the surgery, a decrease in the tenderness threshold value was confirmed. The solvent or the test drug was orally administered, and after 2 hours, the tenderness threshold value was measured using Randall-Selitto equipment (manufactured by Muromachi Kikai Co., Ltd.) in a gastrocnemius muscle. A significant difference test of a solvent group and a test drug group was performed in comparison between groups using Student's t-test or Dunnett multiple comparison test. With P<0.05 in each assay, it was determined that there was a significant difference.
Effectiveness of several representative Example compounds of the invention is shown in the following Table as an improvement rate when a value of a group in which the solvent was administered into a sham surgery group was set as 100%, and a value of a group in which the solvent was administered into a surgery group was set as 0%.

[6] = tested on: reserpine-induced myalgia model; assay: Effect on tenderness threshold value in reserpine-induced myalgia model; format: in vivo, rat
Description: as §3
This model is a model which imitates a fibromyalgia disease. This test was performed based on Pain, 2009, vol. 146, p 26-33. Reserpine (1 mg/kg) was subcutaneously administered into male SD rats (provided by Japan SLC, Inc, Japan) once a day for 3 days. After 5 days, the solvent or the test drug was orally administered. After 2 hours, a tenderness threshold value was measured using Randall-Selitto equipment (manufactured by Muromachi Kikai Co., Ltd.) in a gastrocnemius muscle. A significant difference test of a solvent group and a test drug-administered group was performed in comparison between groups using Student's t-test or Dunnett multiple comparison test. Here, a value obtained by administering the solvent to a normal rat to which reserpine was not administered was set as 100%, and a value of the reserpine group into which the solvent was administered was set as 0%. With P<0.05 in each assay, it was determined that there was a significant difference.

[7] = tested on: abdominal pain by rat colorectal distension; assay: Effect on abdominal pain by rat colorectal distension; format: in vivo; conditions: for MED (minimum effective dose): Wistar male rats, oral, 1 hour after administration, abdominal flexion behavior; for significance versus solvent group: at the dose shown in Table 3, P<0.05
Description: as §3
After Wistar male rats (CLEA Japan, Inc.) were anesthetized with isoflurane, a balloon was inserted into the colon. After awakening, the test drug was orally administered, and after 1 hour, abdominal pain induced by balloon expansion was measured as an indicator of an abdominal flexion behavior. Each stimulus (15, 30, 45, 60 mmHg) was repeatedly performed for 5 minutes at 5-minute intervals. A significant difference test of a solvent group and a test drug group was performed in comparison between groups using Student's t-test or Dunnett multiple comparison test. With P<0.05 in each assay, it was determined that there was a significant difference.
Effectiveness in the abdominal pain test by rat colorectal distension of the several representative Example compounds of the invention is shown in the following Table (In the Table, MED means a minimum effective dose. The same shall apply hereinafter.).

SMILES | pEC50 [1] | pEC50 [2] | significance versus solvent group [3] | Improvement rate [3] | significance versus solvent group [4] | MED (minimum effective dose) [4] [mg/kg] | significance versus solvent group [5] | Improvement rate (tenderness threshold value) [5] | significance versus solvent group ([6]; 1 mg/kg, P<0.05) | Improvement rate (tenderness threshold value) ([6]; male SD rats, 1 mg/kg oral, after 2 hours, normal rat = 100%, reserpine solvent group = 0%) | MED (minimum effective dose) [7] [mg/kg] | significance versus solvent group [7]
Cc1sc2cc(F)ccc2c1-c1ccc(N2CCO[C@H](CNC3CCC3)C2)c(C(=O)O)c1 [Ex13] | 7.28 | 5.42 |  |  |  |  |  |  |  |  |  | 
Cc1sc2cc(Cl)ccc2c1-c1ccc(N2CCO[C@H](CNC(C)(C)C)C2)c(C(=O)O)c1 [Ex16] | 7.48 | 5.09 |  |  |  |  |  |  |  |  |  | 
CC(C)(C)NC[C@H]1CCCN(c2ccc(-c3csc4cc(C(F)(F)F)ccc34)cc2C(=O)O)C1 [Ex14, 2-{(3R)-3-[(tert-butylamino)methyl]piperidin-1-yl}-5-[6-(trifluoromethyl)-1-benzothiophen-3-yl]benzoic acid hydrochloride] | 7.55 | 5.50 | significant activity | 42% (1 mg/kg) | significant activity | 1 | significant activity | >50% (3 mg/kg) |  |  |  | 
Cc1sc2cc(Cl)ccc2c1-c1ccc(N2CCO[C@H](CNC3CCC3)C2)c(C(=O)O)c1 [Ex10, 5-(6-chloro-2-methyl-1-benzothiophen-3-yl)-2-{(2R)-2-[(cyclobutylamino)methyl]morpholin-4-yl}benzoic acid monohydrochloride] | 7.03 | 5.41 | significant activity | >50% (l mg/kg) | significant activity | 3 | significant activity | >50% (3 mg/kg) | significant activity | higher than 50% | 0.3 | significant activity
O=C(O)c1cc(-c2csc3cc(C(F)(F)F)ccc23)ccc1N1CCO[C@H](CNC2CCC2)C1 [Ex12] | 7.62 | 5.76 |  |  |  |  |  |  |  |  |  | 
O=C(O)c1cc(-c2c(F)sc3cc(Cl)ccc23)ccc1N1CCO[C@H](CNC2CCC2)C1 [Ex11, 5-(6-chloro-2-fluoro-1-benzothiophen-3-yl)-2-{(2R)-2-[(cyclobutylamino)methyl]morpholin-4-yl}benzoic acid hydrochloride] | 7.96 | 5.51 | significant activity | >50% (l mg/kg) | significant activity | 3 |  |  |  |  |  | 
Cc1sc2cc(Cl)c(F)cc2c1-c1ccc(N2CCO[C@H](CNC(C)(C)C)C2)c(C(=O)O)c1 [Ex19] | 8.26 | 5.82 |  |  |  |  |  |  |  |  |  | 
Cc1sc2cc(Cl)c(F)cc2c1-c1ccc(N2CCO[C@H](CNC3CCC3)C2)c(C(=O)O)c1 [Ex18, 5-(6-chloro-5-fluoro-2-methyl-1-benzothiophen-3-yl)-2-{(2R)-2-[(cyclobutylamino)methyl]morpholin-4-yl}benzoic acid hydrochloride] | 7.32 | 6.04 | significant activity | >50% (1 mg/kg) | significant activity | 3 | significant activity | >50% (3 mg/kg) |  |  | 0.3 | significant activity
O=C(O)c1cc(-c2csc3cc(C(F)(F)F)c(Cl)cc23)ccc1N1CCO[C@H](CNC2CCC2)C1 [Ex15, 5-[5-chloro-6-(trifluoromethyl)-1-benzothiophen-3-yl]-2-{(2R)-2-[(cyclobutylamino)methyl]morpholin-4-yl}benzoic acid hydrochloride] |  |  |  |  |  |  | significant activity | >50% (3 mg/kg) |  |  |  | 

From US9399038B2, “Benzothiophene compound” (ASTELLAS PHARMA INC., priority 2013, dated 2016)
